Consider 2 compounds from US20100062065A1, “PHARMACEUTICAL COMPOSITION CONTAINING NAPHTHOQUINONE-BASED COMPOUND FOR INTESTINE DELIVERY SYSTEM” (MAZENCE INC., priority 2006, published 2010).

Data set [1] in a line: Intestinal absorption, single-pass intestinal perfusion. Type of data set: in vivo, rats. Here is the method:
In order to determine intestinal absorption (%) of a naphthoquinone-based compound, a single-pass intestinal perfusion technique was carried out in internal organs of rats, including jejunum, ileum and large intestine. The steady-state intestinal effective permeability (Peff) can be expressed according to the following equation. Peff=[−Qin·ln(Cout/Cin)]/A • Peff: Steady-state intestinal effective permeability (cm/s) • Qin: Perfusion flow rate (0.4 mL/min) • Cin, Cout: Inlet and fluid-transport-corrected outlet solution concentrations • A: Mass transfer surface area within intestinal segment (2πrL), • r, L: Radius and length of intestinal segment The radius (r) and length (L) of the jejunum, ileum and large intestine used in experiments are as follows: (r: jejunum, 0.21 cm; ileum, 0.22 cm; large intestine, 0.23 cm, and L: 10 cm) The steady-state was confirmed by the ratio of the outlet to inlet concentrations (Cout/Cin) versus time. The steady-state is established when the Cout/Cin ratio of the naphthoquinone-based compound is maintained at a constant value (n=3, error bars with respect to S.D.). Residual amounts of the naphthoquinone-based compound in the above three intestinal organs were measured at different time points. The outlet steady-state concentration of the compound under perfusion was calculated. The results thus obtained are given in Table 4 and FIG. 2, respectively. The effective permeability was measured at 4 points of each intestinal tissue.

Data set [2] is described as follows: Determination of partition coefficients (octanol / phosphate buffer pH 7.4). In kind it is physicochemical. Particulars: for Partition Coefficient: octanol/phosphate buffer pH 7.4, samples 1-3. On the procedure: Octanol and phosphate buffer (pH 7.4) were saturated with a counter-solvent for 24 hours or more. A given amount of a naphthoquinone-based compound (Compound 1 of Table 1 below) was dissolved in the thus-saturated octanol, mixed with triple-distilled water and stirred using a magnetic stirrer at 200 rpm for 13 hours or more. Samples were taken, filtered through a 0.45 μm RC Membrane filter and diluted with methanol. The diluted sample materials were analyzed by HPLC. A partition coefficient versus an amount of Compound 1 was determined.

The conditions of data set [3]: orally administered; cited from earlier work.

SMILES strings stand for the structures. Several values for one entry are separate records, joined by “and”; a condition that tells them apart may be missing. Equal entries are not always repeated.

For the compound `CC1(C)CCC2=C(O1)c1ccccc1C(=O)C2=O` [Compound 1], the “Peff × 10^−5” value in data set [1] (Duodenum) is 0.79 ± 0.33 10^−5 cm/s; in data set [1] (Ileum), 5.15 ± 1.49 10^−5 cm/s; in data set [1] (Jejunum), 2.37 ± 1.17 10^−5 cm/s; in data set [1] (Large intestine), 7.82 ± 0.93 10^−5 cm/s. Moreover, in data set [2], the “octanol-solubility higher than water-solubility” value is recorded as 100 fold. Besides, the logD in data set [2] (octanol/phosphate buffer pH 7.4, pH 7.4, average over all amounts and samples, read-out: average partition coefficient) came out at 2.3. Further, the “Partition Coefficient” value is 2.17 and 2.02 and 1.99 in data set [2] (100 μg/mL); 2.40 and 2.20 and 2.24 in data set [2] (200 μg/mL); 2.59 and 2.62 and 2.58 in data set [2] (2000 μg/mL); 2.65 and 2.05 and 2.08 in data set [2] (Excess). In data set [2] (pH 7.4), the average partition coefficient result is recorded as “* average partition coefficient: 2.299 (σ = 0.255)”.
As to `C[C@H]1COC2=C1C(=O)C(=O)c1c2ccc2c1CCCC2(C)C` [cryptotanshinone], in data set [3], the absorption rate is recorded as 2.05%.
